Measurements as given in US7906488B2, “Sphingolipids in treatment and prevention of steatosis and of steatosis or of hepatotoxicity and its sequelae” (Nederlandse Organisatie Voor …, priority 2004, dated 2011).

Columns and labels:
APOE*3Leiden mice = test: Effect of dietary sphingolipids on plasma C and TG levels (0.1, 0.2, 0.4% in diet); format: in vivo; conditions: 0.4% sphingolipid in diet, compared with 0.2%
From the text: Sphingolipids: The three sphingolipids that represent the most abundant natural complex sphingolipid classes and the three of the simplest natural sphingolipids, the sphingoid bases that can be formed by enzymatic breakdown of complex sphingolipids in the intestine were used. Sphingomyelin (mainly N-palmitoyl-sphingosine-1-phosphocholine) from egg was obtained from Larodan Fine Chemicals (Stockholm, Sweden). Yeast-derived (semi)synthetic ceramide III (N-stearoyl-phytosphingosine), cerebroside (N-stearoyl-phytosphingosine-1-glucose) and phytosphingosine (PS) were from Cosmoferm BV (Delft, the Netherlands). Sphinganine and sphingosine were from Avanti Polar Lipids (Albaster, Ala.). Animals and diets: Heterozygous female APOE*3Leiden transgenic mice (Van Vlijmen et al. 1994. J. Clin. Invest 93:1403-1410.) (6 months old) were fed a Western-type diet (Hope Farms, Woerden, the Netherlands) containing 15% cocoa butter, 0.25% cholesterol, 1% corn oil, 40.5% sucrose, 20% acid casein, 10% corn starch and 5.95% cellulose (all w/w) for 5 weeks. The mice were allowed free access to food and water. Body weight and food intake were monitored weekly. In the first experiment (FIG. 2), the mice were randomized after these 5 weeks into 7 groups (n=6), based on plasma cholesterol, triglycerides, and body weight. Subsequently, the mice were fed for three weeks the same diet without or with 0.1% (w/w) phytosphingosine (PS), sphingosine, sphinganine, cerebroside, ceramide III, or sphingomyelin. […]
Plasma parameters: Tail blood samples were collected in EDTA-coated cups, or in paraoxon-coated capillaries to prevent lipolysis as described in Zambon et al. 1993 (Zambon et al. 1993. J. Lipid Res. 34:1021-1028). Plasma lipid parameters were determined using commercial kits for total cholesterol (C) Chol R1 from Roche Diagnostics, Mannheim, Germany), non-esterified free fatty acids (FFA) (NEFA-C; Wako chemicals, Neuss, Germany), Total triglycerides (TG) (Triglyceride GPO-Trinder; Sigma, St. Louis, Mo.), β-hydroxybutyrate (β-HB; Sigma) and ALAT (Reflotron GPT; Roche). Serum amyloid A (SAA) was measured by ELISA (Biosource, Nivelles, Belgium) and fibrinogen by sandwich ELISA, as described in Koopman et al., 2005 (Koopman et al. 2005. Fibrinol Proteol 11:19). […] Hepatic VLDL-TG production: The rate of hepatic VLDL-TG production, de novo apoB secretion, and VLDL composition were determined in overnight-fasted mice. […] After 30 min, the animals received a Triton WR1339 injection (Tyloxapol, Sigma; 500 mg/kg body weight in 100 μl saline) to prevent systemic lipolysis of newly-secreted hepatic VLDL-TG (Aalto-Setala et al. 1992. J. Clin. Invest 90:1889-1900.27) Blood samples were drawn at 0, 15, 30, 60, and 90 min after Triton WR1339 injection and plasma TG concentrations were determined. […]

apoE3*-Leiden mice = test: Example 2 overview: high fat high cholesterol W-diet with 1% phytosphingosine, 4 weeks; format: in vivo
Description: The experiment as described in example 1 was repeated several times but using 1% phytosphingosine as a supplement to the W-diet. Each time, one group (control group, consisting of 6 or 12 apoE3*-Leiden mice) was fed the high fat high cholesterol W-diet. Another group (treatment group, consisting of 6 or 12 apoE3*-Leiden mice), was fed the same high fat high cholesterol W-diet diet supplemented with 1% phytosphingosine.
In all mice the following parameters were determined (after 4 hours of fasting) after a diet period of 4 weeks: plasma total cholesterol (PTC), plasma triglycerides (PTG), plasma free fatty acids (PFFA), liver total cholesterol (LTC), liver triglycerides (LTG), liver cholesteryl esters (LCE), serum amyloid A (SAA) (mg/ml), fibrinogen (in mg/ml), body weight (in g), liver weight (in g), heart weight (in g), ALAT (in U/L).

Compound: CCCCCCCCCCCCCC[C@@H](O)[C@@H](O)[C@@H](N)CO [PS, phytosphingosine]
- Plasma C (APOE*3Leiden mice): decreased even more
- Plasma lipid levels (total cholesterol, triglycerides and free fatty acids) vs control (apoE3*-Leiden mice; 1% PS in W-diet): significantly decreased
- Liver lipid levels vs control (apoE3*-Leiden mice; 1% PS in diet W): significantly decreased
- ALAT vs control (apoE3*-Leiden mice; 1% PS in the diet): significantly lowered
- Plasma level of fibrinogen vs control (apoE3*-Leiden mice; 1% phytosphingosine in W-diet): increased
- Levels of serum amyloid A (SAA) vs control (apoE3*-Leiden mice; 1% phytosphingosine in W-diet, 4 hours fasting): significantly lower
